1 molecule from patent US20140228318A1, “Curcumin formulations and methods for making such formulations” (Sanford Research/USD, priority 2010, published 2014) can be followed below.

What all share (assay type): cell-based
The test system of experiment [1] is C4-2 prostate cancer cells. Nature of the experiment: In vitro cytotoxicity / cell proliferation (MTS assay). The settings on record: 48 h, C4-2, 2 days, read-out: IC50 (concentration of drug required to kill 50% of cells). As to the method:
(§1) To examine the anti-cancer activity of the CD-CUR inclusion complex (CD-30), cell proliferation assays were performed using C4-2 and DU145 prostate cancer cell lines. Prostate cancer cells (5000 cells/well in 100 μL media) were seeded in 96-well plates and allowed to attach overnight. […] Media containing equivalent amounts of CD in PBS or DMSO was used as the control. […] The reagent (25 μL/well) was added to each well and plates were incubated for 3 hrs at 37° C. The color intensity was measured at 492 nm using a microplate reader (BioMate 3 UV-Vis spectrophotometer, Thermo Electron Corporation, Hudson, N.H.). […] Just before adding MTS reagents, representative phase contrast microscope images of cells were taken using an Olympus BX 41 microscope (Olympus, Center Valley, Pa., USA).
For orientation: Formazan colour is commonly taken as a measure of viable cells.

The subject of experiment [2] is DU145 prostate cancer cells. Described as above. The settings on record: Homo sapiens, DU-145, 48 h, DU145, 2 days, read-out: IC50 (concentration of drug required to kill 50% of cells). On the procedure: as §1
Experiment [3] concerns C4-2 prostate cancer cells. Nature of the experiment: Colony formation (clonogenic) assay. The settings on record: C4-2, 2 μM, 10 day period. On the procedure:
(§2) Prostate cancer cells (1000) were seeded in 2 mL media in 6-well plates and allowed 2-3 days to attach and initiate the colony formations. […] The plates were then washed twice with PBS, fixed in chilled methanol, stained with hematoxylin (Fisher Scientific, Fair Lawn, N.J., USA), washed with water and air dried. The number of colonies was counted by a MultiImage™ Cabinet (Alpha Innotech Corporation, San Leandro, Calif., USA) using AlphaEase Fc software. The percent of colonies was calculated using the number of colonies formed in treatment divided by number of colonies formed in DMSO or CD in PBS controls.

The test system of experiment [4] is DU145 prostate cancer cells. Nature of the experiment: Colony formation (clonogenic) assay. The settings on record: DU145, 2 μM, 10 day period. On the procedure: as §2

Structures are written as SMILES.

As for `COc1cc(/C=C/C(=O)CC(=O)/C=C/c2ccc(O)c(OC)c2)ccc1O` [CUR, bis(4-hydroxy-3-methoxyphenyl)-1,6-diene-3,5-dione], the IC50 in experiment [1] turned out to be 19.6 µM; in experiment [2], 18.4 µM. The “colonies, percent of DMSO or CD control” value came out at 96% in experiment [3] and 74% in experiment [4].
